# From PubChem BioAssay (NCI)
#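 Method: 48-hour compound exposure of cells in 96-well plates, five concentrations, linear interpolation of endpoints. Abbreviation: GI50, concentration required for 50% inhibition of growth. At the TGI there is no net growth.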 Where a SMILES comes first, the peptide text is derived from it. [ ]: non-standard residue; d: D form. ξ: configuration not given here. ξLac(3-iPr) = CC(C)CC(O)C(=O)O; NMeV = CN[CH](C(=O)O)C(C)C; NMeA = CN[CH](C)C(=O)O; βAla = NCCC(=O)O
# What was measured:
# Test in all cases: DTP human tumour cell line panel, 48 h
# [1] = tested on: SF-539 CNS
# [2] = tested on: MCF7 breast
# [3] = tested on: NCI-H23 lung
# [4] = tested on: NCI-H226 lung
# [5] = tested on: UACC-62 melanoma
# [6] = tested on: M14 melanoma
# [7] = tested on: CCRF-CEM leukemia
# [8] = tested on: A498 renal
# [9] = tested on: 786-0 renal
# [10] = tested on: SF-295 CNS
# [11] = tested on: HS 578T breast
# [12] = tested on: NCI/ADR-RES ovarian
SMILES,GI50 [1] [µM],TGI [1] [µM],GI50 [2] [µM],TGI [2] [µM],GI50 [3] [µM],TGI [3] [µM],GI50 [4] [µM],TGI [4] [µM],GI50 [5] [µM],TGI [5] [µM],GI50 [6] [µM],TGI [6] [µM],GI50 [7] [µM],TGI [7] [µM],GI50 [8] [µM],TGI [8] [µM],TGI [9] [µM],TGI [10] [µM],TGI [11] [µM],TGI [12] [µM]
N#C/C(=C\c1ccc(Br)cc1)n1nnc2cc(Cl)c(Cl)cc21,2.2,4.86,1.51,> 100,2.89,> 100,3.59,> 100,1.68,3.63,1.92,5.03,1.71,> 100,1.78,4.51,–,–,–,–
CN=C(N)c1ccc(N=C(N)c2ccc(C(N)=Nc3ccc(C(N)=NC)cc3)cc2)cc1,–,> 100,–,–,–,–,–,> 100,–,> 100,–,> 100,–,> 100,–,–,> 100,> 100,–,–
CO/N=C\c1cc(O)c(O)c(/C=N/OC)c1,–,> 100,–,94.8,–,99.4,–,88.9,–,> 100,–,> 100,–,> 100,–,> 100,–,> 100,71.1,> 100
O=C(N/N=C/c1ccc([N+](=O)[O-])cc1)Nc1ccc(Br)cc1,–,> 100,–,> 100,–,> 100,–,> 100,–,> 100,–,> 100,–,84.5,–,–,> 100,> 100,> 100,> 100
C[N+](C)(C)c1cc2c(nn1)Nc1ccccc1S2,–,–,–,> 100,–,> 100,–,35.9,–,36.9,–,40,–,41,–,87.8,> 100,49.7,> 100,56.9
CCC(C)C1NC(=O)C2CCCN2C(=O)C(CC(C)C)OC(=O)CCNC(=O)C(C)N(C)C(=O)C(C(C)C)N(C)C1=O (stereo unspecified) (cyclo([ξLac(3-iPr)]PI[NMeV][NMeA][βAla]); configuration not given here),–,> 80.3,–,> 26.7,–,> 71.6,–,> 45.9,–,5.06,–,6.49,–,> 17.9,–,81.8,17.6,8.05,> 96.3,> 86.9
O=C(c1ccccc1)C1C(c2ccccc2)N1S(=O)(=O)c1ccccc1 (stereo unspecified),–,> 100,–,> 100,–,> 100,–,> 100,–,> 100,–,> 100,–,> 100,–,–,–,> 100,> 100,> 100
Cc1ccc2c(ccc(/C=C\c3cc(C)c4cccnc4c3O)[n+]2C)c1,–,25.1,–,–,–,53.4,–,3.98,–,15,–,25.5,–,26,–,33.9,> 100,26.9,–,–
CCOC(=O)c1c(C)n(C)c2c1cc(O)c1[nH]c3c(c12)CCCC3,–,37.9,–,19.4,–,52.7,–,–,–,35.8,–,29.2,–,43.6,–,–,42.3,> 100,87.4,54
Cc1nc2[nH]ncn2c(=O)c1CCCl,–,> 10,–,> 10,–,> 10,–,> 10,–,> 10,–,> 10,–,> 10,–,> 10,–,–,> 10,> 10
Clc1ccc(C[P+]2(c3ccccc3)CCCCC2)cc1,–,> 100,–,–,–,> 100,–,> 100,–,> 100,–,> 100,–,> 100,–,> 100,> 100,> 100,–,–
C[C@]12CC[C@@H]3c4ccc(O)cc4CC[C@H]3[C@@H]1CC[C@@H]2OC(=O)CCc1ccccc1,–,–,–,37.7,–,34.6,–,36.8,–,28.8,–,37.8,–,67.5,–,32.6,> 100,42,17.9,33.8
CCN(CC)c1ccc2nc3ccc(N=Nc4c(O)ccc5ccccc45)cc3[n+](-c3ccccc3)c2c1,–,–,–,–,–,> 100,–,> 100,–,> 100,–,> 100,–,> 100,–,–,> 100,> 100,> 100,> 100
COc1cc(C(=O)CC2OC(=O)C(Cl)=C2Cl)ccc1Cl (stereo unspecified),–,> 100,–,–,–,> 100,–,> 100,–,> 100,–,> 100,–,> 100,–,> 100,–,> 100,–,–
OCc1cc2ccncc2c2c1[nH]c1ccccc12,–,14.8,–,–,–,48.2,–,6.71,–,–,–,43.8,–,> 100,–,19.6,–,25.1,–,–
Clc1ccc(OCc2nnc3sc(-c4ccc(-c5ccc(Cl)cc5Cl)o4)nn23)cc1,–,–,–,–,–,> 100,–,> 100,–,–,–,> 100,–,> 100,–,> 100,> 100,> 100,> 100,> 100
CC1(C)N=C(N)N=C(N)N1c1cccc(C(=O)Nc2ccc(S(=O)(=O)F)cc2)c1,–,> 100,–,> 100,–,> 100,–,> 100,–,> 100,–,> 100,–,> 100,–,> 100,> 100,> 100,> 100,> 100
Cc1ccc(C2COc3cc(O)c(O)cc3C2)cc1 (stereo unspecified),–,68.4,–,114,–,65.6,–,235,–,77.2,–,–,–,12.3,–,130,–,134,–,40.8
O=C1/C(=C/c2ccc(Oc3ccccc3)cc2)N=C(c2ccccc2)N1c1ccc(S(=O)(=O)Nc2nccs2)cc1,–,> 100,–,38,–,> 100,–,> 100,–,> 100,–,72.3,–,> 100,–,82,> 100,85.5,> 100,46.6
O=C1c2ccccc2C(=O)c2c(Nc3cc4c5c(ccc6c7ccc8c9c(cc(Nc%10cccc%11c%10C(=O)c%10ccccc%10C%11=O)c(c3c56)c97)-c3ccccc3C8=O)C(=O)c3ccccc3-4)cccc21,–,–,–,> 100,–,> 100,–,> 100,–,> 100,–,> 100,–,–,–,65.1,> 100,> 100,61.1,> 100
O=C(O)CCC(N=NNc1ccc(-c2nc3ccccc3[nH]2)cc1)C(=O)O (stereo unspecified),–,> 100,–,> 100,–,> 100,–,> 100,–,–,–,> 100,–,> 100,–,> 100,> 100,73.2,> 100,> 100
CC(=O)n1cc(OP(=O)(Oc2ccccc2)Oc2ccccc2)c2ccccc21,–,42.5,–,31.5,–,> 100,–,> 100,–,42.6,–,52.1,–,50.4,–,> 100,> 100,57.3,> 100,44.3
Oc1c(Br)cc(/C=C/c2cccc(/C=C/c3cc(Br)c(O)c(Br)c3)n2)cc1Br,–,26.6,–,42.5,–,–,–,–,–,41.8,–,34.9,–,–,–,25,28,47.4,66.9,85.6
CC(NC(=O)c1ccc(NP(=O)(OCc2ccc([N+](=O)[O-])o2)N(C)CCCCCl)cc1)c1ccc(OCC2CCCCC2)c(C(N)=O)c1 (stereo unspecified),–,33.7,–,18.3,–,34.8,–,45.1,–,26.4,–,–,–,16.5,–,49.2,45.9,36.4,42.9,> 100
